From patent publication US8071645B2, “Systems and methods for treating human inflammatory and proliferative diseases and wounds, with fatty acid metabolism inhibitors and/or glycolytic inhibitors” (The Regents of the University of Colorado, priority 2003, dated 2011)

What was measured:
HL60 MDR tumor = HL60 MDR tumor implanted in nude mice, tumor volume; format: in vivo
Excerpt: Tumor implantation. Mice were purchased from the Animal Production Program of National Cancer Institute, Frederick, Md. The animals used were Athymic Ncr-nu/nu (strain code 01B74). HL60 MDR cells were harvested and reconstituted at 1 million cells per 100 microliters of phosphate buffered saline. One million tumor cells per injection site were implanted subcutaneously on two sites of the animal's back. Treatments began at exactly seven days post tumor implantation. Tumor size/volume was monitored twice weekly using measurement calipers, with the formula Tumor Volume=π×(short diameter)^2×(long diameter)/6.
Mice experiments with fatty acid metabolism and glycolytic inhibitors. Fatty acid metabolism inhibitors were exemplified by etomoxir at 200 micrograms/day. Glycolytic inhibitors were exemplified by 2-deoxy-D-glucose at 2.5 mM in 100 microliters daily. The combination was administered daily, etomoxir at 200 micrograms and 2-deoxy-D-glucose at 2.5 mM in 100 microliters. All drugs were administered intra-peritoneally. 5-Fluoro-uracil, at 20 mg per kilogram mouse, was injected intra-peritoneally once a week
HL60 MDR human leukemia cells were cultured and implanted in nude mice as described above under “Materials and Methods”. The mice were given 200 ug of Etomoxir, 2.5 mM 2-Deoxy-D-glucose, or both 200 ug of Etomoxir and 2.5 mM 2-Deoxy-D-glucose given daily by IP injection. Treatment began exactly one week after tumor implantation.

[1] = test system: RD cells (rhabdomyosarcoma cells); assay: percent death of RD cells by flow cytometry; format: cell-based
Protocol: Dot plots as a function of live versus dead cells. The cells were cultured at a concentration of 0.5 to 1 million cells per ml. Cells were untreated or treated with etomoxir or 2-deoxy-D-glucose at a concentration of 2.5 mM at the indicated concentrations for either 24 or 48 hours. In additional experiments, under each of these culture conditions, the cells were cultured for 24 hours at which time point, polyclonal anti-UCP-2 was added at a 1:1000 dilution of stock provided by Alpha Diagnostics, San Antonio, Tex. Cells were harvested and analyzed by flow cytometry. Each dot on the dot plots of FIGS. 1, 3, 5, 7, 9, and 11 represents one cell. Five thousand cells were assessed for forward scatter (FS), as a function of cell size, versus side scatter (SS), as a function of cellular granularity. The upper ellipse represents live cells by these criterion and the lower ellipse in each dot plot represents the dead cells.
Statistical Analysis, Percents, and Geometric Mean Values Percents. Gating is a tool provided by Cell Quest software and allows for the analysis of a certain population of cells. Gating around both the live and dead cell populations gave a percent of the cell numbers that was in each population. After the gates were drawn, a percent value of dead cells was calculated by taking the number of dead cells divided by the number of total cells and multiplying by one hundred.
Referring to FIGS. 29 and 30, RD cells (rhabdomyosarcoma cells—not drug resistant), cultured as described above under “Materials and Methods” were untreated or treated with etomoxir, with 2-deoxy-D-glucose, or with a combination of etomoxir and 2-deoxy-D-glucose, at concentrations indicated in FIG. 29 for 24 hours. Cells were harvested and analyzed by flow cytometry. […] The percent of cell deaths for RD cells after 24 hours was: (a) 31% when untreated, (b) 57% when treated with etomoxir alone, (c) 46% when treated with 2-deoxy-D-glucose alone, and (d) 66% when treated with the combination of etomoxir and 2-deoxy-D-glucose.
Referring to FIGS. 33 and 34, RD cells, cultured as described in Example 22, were untreated or treated with etomoxir, with 2-deoxy-D-glucose, or with a combination of etomoxir and 2-deoxy-D-glucose, at concentrations indicated in FIG. 33 for 48 hours. Cells were harvested and analyzed by flow cytometry. […] The percent of cell deaths for RD cells after 48 hours was: (a) 36% when untreated, (b) 64% when treated with etomoxir alone, (c) 63% when treated with 2-deoxy-D-glucose alone, and (d) 68% when treated with the combination of etomoxir and 2-deoxy-D-glucose.

L1210 DDP cells = assay: mitochondrial membrane potential (MitoTracker) of L1210 DDP cells; format: cell-based; conditions: 24 hours of incubation, FIG. 11
Protocol: Flow Cytometry. Cells were harvested, counted, and resuspended at 10^6 cells/100 μl of PBS containing 2.5% fetal calf serum in preparation for flow cytometric analysis. Cells were stained for intracellular H202 using 6-carboxy-2′,7′-dichlorodihydrofluorescein diacetate (DCF-DA, Molecular Probes, Eugene, Oreg.). Briefly, cells were incubated at 37° with 1 mM DCF-DA for 20 minutes, washed twice in PBS containing 2.5% fetal calf serum and analyzed flow cytometrically. Mitochondrial membrane potential was assessed using Mitotracker Red (CM-H2XROS, Molecular Probes, Eugene, Oreg.). […] The cells were incubated at 37° for 20 minutes, washed twice in PBS containing 2.5% fetal calf serum and analyzed flow cytometrically. Data were acquired on a Coulter Elite Epics or Excel flow cytometer (Coulter, Hialeah, Fla.) and analyzed with CellQuest software, (Becton Dickinson, San Jose, Calif.). […] Each sample population was classified for cell size (forward scatter) and complexity (side scatter), gated on a population of interest and evaluated using 5,000 cells. […]
We measured the effects of etomoxir on metabolism by measuring mitochondrial membrane potential with a fluorescent dye (Mitotracker Red, Molecular Probes, Eugene, Oreg.) which fluoresces as a function of mitochondrial potential. […]

With `CCOC(=O)C1(CCCCCCOc2ccc(Cl)cc2)CO1` (centres unmarked) [etomoxir, 2-(6-(4-chlorophenoxy)-hexyl)-oxirane-2-carboxylic acid ethyl ester] the “tumor growth versus control” value (HL60 MDR tumor; 21 day period, single agent) was “increase in tumor growth”, the “tumor volume, Day 7” value (HL60 MDR tumor; Day 7 after implantation (start of treatment), 200 ug Etomoxir and/or 2.5 mM 2-Deoxy-D-glucose daily IP) was 36 mm^3 and the “tumor volume, Day 9” value (HL60 MDR tumor; Day 9, 200 ug Etomoxir and/or 2.5 mM 2-Deoxy-D-glucose daily IP) was 71.73 mm^3. For the same compound, the “tumor volume, Day 15” value (HL60 MDR tumor; Day 15, 200 ug Etomoxir and/or 2.5 mM 2-Deoxy-D-glucose daily IP) was 261.35 mm^3, the “tumor volume, Day 21” value (HL60 MDR tumor; Day 21, 200 ug Etomoxir and/or 2.5 mM 2-Deoxy-D-glucose daily IP) was 895.09 mm^3 and the “percent of cell deaths” value ([1]; 24 hours, concentrations as in FIG. 29) was 57%. The “percent of cell deaths” value ([1]; 48 hours, concentrations as in FIG. 33) was 64% and the “mitochondrial membrane potential (MitoTracker)” value (L1210 DDP cells) was “increase”.
